{"source": "patent US8513161B2", "about": "“Enhancement of plant growth” (Valent Biosciences Corporation, priority 2007, dated 2013)", "test_system": "sorghum", "experiment": "Field study, seed treatment of sorghum", "format": "in vivo", "details": "for root dry weight of a sample of 10 sorghum plants: 73 days after planting, control 148.5", "protocol": "For the field studies, the seed was treated with a seed treatment formulation containing clothianidin. The rate of clothianidin was dependent on the crop species. The seed treatment formulations were amended with the appropriate concentrations of either PESA or the sodium salt of PESA. Crops were planted and grown under standard agricultural practices, and evaluated at the times indicated. The sodium salt of PESA was prepared as described above, and was used in seed treatment either alone or in the presence of clothianidin. Sorghum seed was treated with 0 or 200 grams of clothianidin/100 kg (220 pound) of seed and with 0, 22, 55, or 137.5 grams PESA salt/100 kg seed.", "note": "Where a name gives a salt, the structure may show the parent alone.", "data": [{"smiles": "O=C(O)CCC(=O)NCCc1ccccc1", "note": "[PESA salt]", "values": [{"measurement": "root dry weight of a sample of 10 sorghum plants", "setting": "sodium salt of PESA 22 g/100 kg seed alone", "result": 183.5, "unit": "grams"}, {"measurement": "root dry weight of a sample of 10 sorghum plants", "setting": "sodium salt of PESA 55 g/100 kg seed alone", "result": 146.5, "unit": "grams"}, {"measurement": "root dry weight of a sample of 10 sorghum plants", "setting": "sodium salt of PESA 137.5 g/100 kg seed alone", "result": 141.6, "unit": "grams"}, {"measurement": "safening of sorghum", "setting": "conclusion from Table 10", "result": "safened sorghum against clothianidin-induced root growth inhibition"}]}]}
